Values quoted from earlier work as cited in patent US20230364095A1, “TOPICAL TREATMENT OF VITILIGO” (INCYTE CORPORATION, priority 2020, published 2023).
Read-outs that look alike come from different tables or passages of the source.

System: patients with vitiligo

Row | Structure (SMILES) | Clinical outcome (case report) (oral 20 mg BID for 20 weeks, patient with alopecia areata and vitiligo) | Clinical outcome (case report) (oral 5 mg QD, after 5 months, widespread and progressive vitiligo)
1 | N#CC[C@H](C1CCCC1)n1cc(-c2ncnc3[nH]ccc23)cn1 [ruxolitinib, (R)-3-(4-(7H-pyrrolo[2,3-d]pyrimidin-4-yl)-1H-pyrazol-1-yl)-3-cyclopentylpropanenitrile] | hair regrowth as well as repigmentation of areas affected with vitiligo | –
2 | C[C@@H]1CCN(C(=O)CC#N)C[C@@H]1N(C)c1ncnc2[nH]ccc12 [tofacitinib] | – | near complete repigmentation
